Experimental data reported in US7498309B2, “Pharmaceutical compositions for bioactive peptide agents” (Sangstat Medical Corporation, priority 2003, dated 2009).
“Also recorded” adds a separate entry of the source.

Tests used:
[1] = tested on: cynomolgus monkeys with chronic and naturally occurring colitis; assay: RDP58 capsule therapy in primates suffering from colitis (stool quality scores); format: in vivo; conditions: animal MCY33636; capsule from day 0, treatment extended to day 21
[2] = tested on: cynomolgus monkeys with chronic and naturally occurring colitis; assay: as above; format: in vivo; conditions: for response to therapy: capsule from day 0
Procedure: RDP58 oral therapy is believed to have a beneficial effect on resolution of clinical signs of chronic colitis in primates suffering from a naturally occurring colitis like condition. In these studies, RDP58 was administered in aqueous form (i.e., powder dissolved in water) by oral gavage. The objective of the pilot study described in this example was to analyze the effect of administering RDP58 in capsule form to primates suffering from a chronic, naturally occurring, colitis-like condition. Data generated from this study was compared to data obtained from previous studies where RDP58 peptide was administered in aqueous form.
Methods. Four cynomolgus monkeys, with documented clinical histories of chronic and naturally occurring colitis, were selected for the study. All animals were monitored for 7 days before initiating therapy. Animals were dosed with one capsule (approximately 13 mg per capsule) every day, starting on Day 0, for 14 days. A commercially available cat pilling gun was used. Disease activity was monitored using stool quality scores. The scoring system used was the following: 1=Normal; 2=Loose stool; 3=Watery diarrhea; and 4=Bloody diarrhea. Response is defined as an improvement in stool quality score by at least 1 point.
Animals were physically examined twice per day. After 14 days, RDP58 therapy was stopped and animals were monitored for 7 additional days. Stool quality was documented through this period.

[3] = Fill formulation: solubility and dispersion of the peptide in Labrafil M 1944 CS; format: physicochemical
Procedure: Fill Formulation. […] The RDP58 peptide was not soluble in Labrafil M 1944 CS, thus a stable suspension of the peptide was made using Colloidal Silicon Dioxide, USP (Aerosil 300) as a suitable dispersing agent. Bench trials were performed to determine the needed quantity of Aerosil 300, which would provide a sufficient viscosity increase to maintain the peptide uniformly suspended for a minimum of 24 hours while allowing the fill formulation to remain flowable or pumpable. The fill formulation for the a 100 mg RDP58 softgel capsule is the following: […]

[4] = all animals studied, oral capsule

## CCCC[C@@H](NC(=O)[C@H](N)CCCNC(=N)N)C(=O)N[C@H](CCCC)C(=O)N[C@H](CCCC)C(=O)N[C@H](CCCNC(=N)N)C(=O)N[C@H](CCCC)C(=O)N[C@H](CCCC)C(=O)N[C@H](CCCC)C(=O)NCC(=O)N[C@H](Cc1ccc(O)cc1)C(N)=O [RDP58, NH2-(D)Arg-(D)nL-(D)nL-(D)nL-(D)Arg-(D)nL-(D)nL-(D)nL-Gly-(D)Tyr-NH2]
[1]
  response to therapy: response was immediate
[2]; [4]
  negative side effects: None of the animals studied showed negative side effects
  tolerability of dosing: well tolerated
[2]; all four animals, one capsule (approximately 13 mg) orally every day for 14 days, stool quality scores
  effect on disease activity / therapeutic response: positive effects; also recorded: positive therapeutic response
[2]; animal 33558
  response to therapy: immediate response
[2]; animal 33558, re-treated starting on day 23
  response to re-treatment: Response to therapy was immediate
[2]; animal 33558, therapy stopped on day 14
  time animal remained normal after therapy was stopped: 4 to 5 days
[2]; animal MCY33560
  response to therapy: immediate response
[2]; animal MCY33636
  duration of normal stool quality: 8 days
[2]; animal MCY33639
  response to therapy: immediate positive response
[2]; animal MCY33639, re-treated on day 23
  response to re-treatment: immediate positive response
[3]; in Labrafil M 1944 CS
  dispersion of the peptide: enhanced dispersion
[3]; suspending agent Labrafil M 1944 CS
  solubility in Labrafil M 1944 CS: not soluble
